Data as given in patent US20250188084A1, “COMPOUNDS AND METHODS FOR MODULATING CDK9 ACTIVITY” (KRONOS BIO, INC., priority 2020, published 2025).

Legend:
[1] = biological target: T1, CDK9 (Homo sapiens, UniProt P50750); experiment: CDK9 degradation by HiBit assay, NCIH211 cells; format: cell-based; settings: NCIH211 cells with endogenously tagged N-terminal CDK9-HiBit, 24 hours incubation, read-out: HiBit-NCIH211.2 DC50
T1 construct: NCIH211 cells with endogenously tagged N-terminal CDK9-HiBit; endogenous in cells; host or cells: NCIH211 cells (endogenous CDK9 locus tagged with HiBit)
Experimental: (§1) Exemplary compounds of the invention were tested for degradation of CDK9. The compounds were tested in 10-dose DC50 duplicate mode with a 3-fold serial dilution starting at 10 μM by HiBit assay (Promega, Inc) as a direct measurement of CDK9 presence, with incubation time of 24 hours using either NCIH211 cells with endogenously tagged N-terminal CDK9-HiBit or NCIH1048 cells with endogenously tagged N-terminal CDK9-HiBit. A control compound (THAL-SNS-032, CAS 2139287-33-3) was tested in 10-dose DC50 mode with 3-fold serial dilution starting at 10 μM. Data was normalized to positive (medium only) and negative (cells with no treatment) controls and curve fits were analyzed with CDK9 as % response vs. log [compound concentration] using a 4-parameter logistic model by GraphPad software. For Table 2: A is <100, B is <1000 C is <10,000, D is >10,000 and ND is Not Determined.

[2] = biological target: T1, CDK9; experiment: CDK9 degradation by HiBit assay, NCIH1048 cells; format: cell-based; settings: NCIH1048 cells with endogenously tagged N-terminal CDK9-HiBit, 24 hours incubation, read-out: HiBit-NCIH1048.3 DC50
Experimental: as §1

[3] = numeric value (control compound)

T1 sequence (P50750 whole entry): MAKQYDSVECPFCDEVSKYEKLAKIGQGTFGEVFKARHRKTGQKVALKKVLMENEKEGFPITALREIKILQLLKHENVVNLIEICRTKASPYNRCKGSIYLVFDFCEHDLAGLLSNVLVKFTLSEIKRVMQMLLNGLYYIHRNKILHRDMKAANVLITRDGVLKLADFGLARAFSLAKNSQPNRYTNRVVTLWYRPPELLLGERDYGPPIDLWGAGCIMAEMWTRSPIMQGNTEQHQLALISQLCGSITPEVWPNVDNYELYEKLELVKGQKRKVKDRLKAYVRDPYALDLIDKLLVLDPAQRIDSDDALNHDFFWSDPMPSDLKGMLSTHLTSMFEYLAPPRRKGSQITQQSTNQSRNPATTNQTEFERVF
T1 sequence (O60563 whole entry partner): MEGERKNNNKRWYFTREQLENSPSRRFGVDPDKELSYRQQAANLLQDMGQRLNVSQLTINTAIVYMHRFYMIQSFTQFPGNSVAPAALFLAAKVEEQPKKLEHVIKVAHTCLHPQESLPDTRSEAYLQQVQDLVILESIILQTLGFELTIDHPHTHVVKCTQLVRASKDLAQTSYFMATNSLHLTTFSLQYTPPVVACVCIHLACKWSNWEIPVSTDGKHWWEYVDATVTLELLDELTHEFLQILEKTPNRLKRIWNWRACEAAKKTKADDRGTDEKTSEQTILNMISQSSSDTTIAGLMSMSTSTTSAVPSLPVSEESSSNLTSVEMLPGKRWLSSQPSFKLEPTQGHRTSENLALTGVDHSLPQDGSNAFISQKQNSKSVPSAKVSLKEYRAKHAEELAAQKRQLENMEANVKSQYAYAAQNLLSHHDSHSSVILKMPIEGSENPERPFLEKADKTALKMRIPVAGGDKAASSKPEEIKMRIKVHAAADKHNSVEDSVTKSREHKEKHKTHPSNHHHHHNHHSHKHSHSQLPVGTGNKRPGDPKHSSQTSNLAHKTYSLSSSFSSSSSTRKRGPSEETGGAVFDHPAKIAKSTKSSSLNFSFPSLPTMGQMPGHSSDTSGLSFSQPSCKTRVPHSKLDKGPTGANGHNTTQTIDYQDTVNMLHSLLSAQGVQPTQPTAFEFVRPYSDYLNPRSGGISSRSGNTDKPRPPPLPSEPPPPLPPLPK

Row | SMILES | DC50 [1] | DC50 [2] | DC50 [1, 3] | DC50 [2, 3]
1 | C/C=C(\CC)c1cc(N[C@H]2CC[C@H](NCC(=O)N3CCN(CCNc4cccc5c4C(=O)N(C4CCC(=O)NC4=O)C5=O)CC3)C2)n2ncc(Cl)c2n1 (stereo partly drawn) [Compound 58.0, 4-[2-[4-[2-[[(1S,3S)-3-[[3-chloro-5-[(E)-1-ethylprop-1-enyl]pyrazolo[1,5-a]pyrimidin-7-yl]amino]cyclopentyl]amino]acetyl]piperazin-1-yl]ethylamino]-2-(2,6-dioxo-3-piperidyl)isoindoline-1,3-dione] | < 100 nM | < 100 nM |  | 
2 | C/C=C(\CC)c1cc(N[C@H]2CC[C@H](NCC(=O)N3CCN(CCCCNc4cccc5c4C(=O)N(C4CCC(=O)NC4=O)C5=O)CC3)C2)n2ncc(Cl)c2n1 (stereo partly drawn) [Compound 59.0, 4-[4-[4-[2-[[(1S,3S)-3-[[3-chloro-5-[(E)-1-ethylprop-1-enyl]pyrazolo[1,5-a]pyrimidin-7-yl]amino]cyclopentyl]amino]acetyl]piperazin-1-yl]butylamino]-2-(2,6-dioxo-3-piperidyl)isoindoline-1,3-dione] | < 100 nM | < 100 nM |  | 
3 | CC(C)(C)c1cnc(CSc2cnc(NC(=O)C3CCN(CC(=O)NCCOCCOCCOCCNc4cccc5c4C(=O)N(C4CCC(=O)NC4=O)C5=O)CC3)s2)o1 (stereo not drawn) [THAL-SNS-032, reference compound] |  |  | 53 nM | 11 nM
